Where a name gives a salt, the structure may show the parent alone.
Legend:
[1] = test system: P. aeruginosa PAO581 (PAO1mucA25); experiment: NIH drug library screen for inhibition of growth, mucoidy and PalgD-lacZ colour; format: cell-based, Pseudomonas aeruginosa; conditions: for Growth 2 μM / Mucoidy 2 μM / Color 2 μM: drug at 2 μM; for Growth 2 μM / Growth 10 μM / Growth 50 μM: PAO581 on PIA; for Growth 10 μM / Mucoidy 10 μM / Color 10 μM: drug at 10 μM; for Growth 50 μM / Mucoidy 50 μM / Color 50 μM: drug at 50 μM; for Mucoidy 2 μM / Mucoidy 10 μM / Mucoidy 50 μM: PAO581 with pLP170-PalgD-lacZ on PIA + X-gal; for Color 2 μM / Color 10 μM / Color 50 μM: X-gal colour of PalgD-lacZ reporter, 'Light' wraps to 'Light Blue'
[2] = Adverse effects after nebulization in mice; format: in vivo, C57BL/6 mice; conditions: single nebulized dose of 5 ml of 100% DMSO; C57BL/6 mice (n=8)
Experimental: Drug Nebulization. C57BL/6 mice (n=8) were first exposed to 5 mL DMSO for 10 minutes to determine any adverse effects that may occur from using DMSO. Mice (n=16) were then exposed to TOB in 0.225% saline or RFX in DMSO via nebulization until the 5 mL drug mixture was depleted—typically 10-15 minutes. Nebulization was conducted using the pressure-based nebulizer and chamber purchased from Kent Scientific (Torrington, Conn.). TOB was nebulized at concentrations of 100 mg (n=4) or 400 mg (n=4) in 5 mL of 0.225% saline. RFX was nebulized at concentrations of 100 mg (n=4) or 400 mg (n=4) in 5 ml of 100% dimethyl sulfoxide. Mice were sacrificed immediately after nebulization via CO2 chamber. Lungs were then collected and homogenized. TOB concentrations were measured using ELISA. RFX concentrations were measured via HPLC.
The potential adverse effects of using DMSO were first assessed by nebulizing DMSO alone to a group of C57BL/6 mice (n=8). This type of mice was used due to their natural resistance against infection based on our previous studies. […] To determine the dosage of each drug received by the mice, the lungs were homogenized and drug concentrations of TOB and RFX were determined via ELISA and HPLC, respectively. […] The droplet size for both TOB and RFX were determined to be identical with the average droplet size for TOB and RFX being 5.07 μm and 5.02 μm, respectively. […]

SMILES	Growth 2 μM [1]	Growth 10 μM [1]	Growth 50 μM [1]	Mucoidy 2 μM [1]	Color 2 μM [1]	Mucoidy 10 μM [1]	Color 10 μM [1]	Mucoidy 50 μM [1]	Color 50 μM [1]	adverse effects [2]
CCN1CCN(c2cc3c(cc2F)c(=O)c(C(=O)O)cn3C2CC2)CC1 [Enrofloxacin]	Inhibited	Inhibited	Inhibited	–	–	–	–	–	–	–
C[C@H]1COc2c(C3(N)CC3)c(F)cc3c(=O)c(C(=O)O)cn1c23 [Pazufloxacin]	Inhibited	Inhibited	Inhibited	–	–	–	–	–	–	–
CO[C@H]1/C=C/O[C@@]2(C)Oc3c(C)c(O)c4c(c3C2=O)C2=NC3(CCN(CC(C)C)CC3)NC2=C(NC(=O)/C(C)=C\C=C\[C@H](C)[C@H](O)[C@@H](C)[C@@H](O)[C@@H](C)[C@H](OC(C)=O)[C@@H]1C)C4=O [Rifabutin]	Reduced	Inhibited	Inhibited	High	Light	–	–	–	–	–
NC1CCN(c2nc3c(cc2F)c(=O)c(C(=O)O)cn3-c2ccc(F)cc2F)C1 (stereo not drawn) [Tosufloxacin Tosilate]	Inhibited	Inhibited	Inhibited	–	–	–	–	–	–	–
CCCCCCCCCOc1ccc2[nH]cc(CCN)c2c1 [5-Nonyloxyltryptamine]	–	Yes	Reduced	–	–	High	Blue	High	Blue	–
CO[C@H]1/C=C/O[C@@]2(C)Oc3c(C)c(O)c4c(O)c(c(/C=N/N5CCN(C6CCCC6)CC5)c(O)c4c3C2=O)NC(=O)/C(C)=C\C=C\[C@H](C)[C@H](O)[C@@H](C)[C@@H](O)[C@@H](C)[C@H](OC(C)=O)[C@@H]1C [Rifapentine]	Yes	Reduced	Inhibited	High	Blue	Reduced	Light	–	–	–
CN1CCN(c2c(F)cc3c(=O)c(C(=O)O)cn4c3c2SCC4)CC1 [Rufloxacin Monohydrate]	–	Yes	Yes	–	–	High	Blue	Inhibited	Light	–
COc1c(N2C[C@@H]3CCCN[C@@H]3C2)c(F)cc2c(=O)c(C(=O)O)cn(C3CC3)c12 [Moxifloxacin Hydrochloride]	Reduced	Inhibited	Inhibited	Reduced	Light	–	–	–	–	–
CC[C@H]1OC(=O)[C@H](C)[C@@H](O[C@H]2C[C@@](C)(OC)[C@@H](O)[C@H](C)O2)[C@H](C)[C@@H](O[C@@H]2O[C@H](C)C[C@H](N(C)C)[C@H]2O)[C@](C)(OC)C[C@@H](C)C(=O)[C@H](C)[C@@H](O)[C@]1(C)O [Clarithromycin]	Yes	Reduced	Yes	High	Blue	High	Blue	Inhibited	Light	–
C[S+](C)[O-] [DMSO, dimethyl sulfoxide]	–	–	–	–	–	–	–	–	–	no adverse effects
CCCCCCNC(=O)n1cc(F)c(=O)[nH]c1=O [Carmofur]	Yes	Reduced	Reduced	High	Light	Inhibited	Clear	Inhibited	Clear	–

From patent US10993935B2, “Compositions and methods for treatment of lung infections” (priority 2018, dated 2021)
